{
  "source": "patent US20190321496A1",
  "about": "“AGENTS AND METHODS FOR THE DIAGNOSIS AND TREATMENT OF DISEASES ASSOCIATED WITH EXTRACELLULAR MATRIX TURNOVER” (Baker IDI Heart and Diabetes Institute Holdings Limited, priority 2016, published 2019)",
  "key": {"[1]": {"test_system": "unstable plaque in the mouse carotid artery", "assay": "Ex vivo binding to frozen sections of tandem stenosis mouse carotid unstable plaques", "details": "0.1 mg/ml conjugate, 60 minutes, FITC channel fluorescence microscopy", "description": "(§1) Conjugates of T-peptide (TLTYTWS)-FITC (Alexa 488) and control peptide (Con-peptide)-FITC were commercially synthesized (GL Biochem, Shanghai China) using solid phase peptide synthesis, as described above. The concentration of the synthesized peptide-FITC conjugates was 1 mg/ml.\n(§2) At 12 weeks of age and 6 weeks after commencement of high fat diet, ApoE−/− mice (C57BL/6J background) were anaesthetized by intraperitoneal injection of a mixture of ketamine (100 mg/kg) and xylazine (10 mg/kg). An incision was made in the neck and the right common carotid artery exposed by dissecting away circumferential connective tissue. A tandem stenosis with 150 μm outer diameter was introduced with the distal stenosis placed 1 mm from the carotid artery bifurcation and the proximal stenosis 3 mm from the distal stenosis. A 6-0 blue braided polyester fibre suture was tied around the carotid artery and a 150 μm needle to achieve the stenosis diameter of 150 μm and the needle was subsequently removed after the suture was secured. The incision wound was sutured close and the mice resumed their high fat diet. […]\n(§3) Frozen […] tissue sections of tandem stenosis mouse carotid unstable plaques and aortic arch stable plaques on glass slides were thawed for 30 minutes at room temperature. […] The slides were then examined by fluorescence microscopy (IX81 Olympus microscope) in the FITC 488 nm channel."}, "[2]": {"test_system": "MMP2-predigested collagen IV", "assay": "In vitro binding to MMP2-predigested collagen IV coated glass slides", "design": "species or system human", "details": "for FITC signal on MMP2-predigested collagen IV coated glass slide: 0.1 mg/ml, 60 minutes, room temperature", "description": "(§4) T-peptide-FITC (Alexa 488) and control peptide-FITC conjugates, as well as the unlabelled T-peptide-LPETG peptide, were commercially synthesized (GL Biochem. Shanghai, China) using solid phase peptide synthesis, as described elsewhere herein. The concentration of the synthesized peptides were all at 1 mg/ml.\nBinding to MMP2 digested collagen IV Collagen IV was applied to glass slides coated with polylysine. 1. Polylysine (MW of 30,000-70,000) at 0.1 mg/ml in 0.15 M borate buffer (pH 8.3) was prepared and filtered with […] pore size membrane syringe filter (Millex® Syringe Filter, Millipore). 2. Collagen IV (collagen type IV from human fibroblast culture, Sigma. Aldrich) was diluted to 1:10 with Hank's Balanced Salt Solution (HBSS) to 0.04 mg/ml. 3. For MMP2 digestion, Active recombinant human MMP2 enzyme (expressed in CHO cells) was purchased from Calbiochem. MMP2 stock solution was diluted with PBS to create 0.01 μg/μl MMP2 concentration according to manufacturer's recommendations. 4. For T-peptide-HTC testing using added MMP2, 20 μl of polylysine was spotted on several glass slides and left overnight at room temperature to dry. This forms a coating base for collagen to adhere to subsequently. 5. To predigest some collagen IV with MMP2, 3 μl of (0.1 mg/ml ) MMP2 was mixed with 35.8 μl of diluted collagen IV solution with 1.2 μl of 100 mM CaCl2 (3 mM Calcium final concentration) in an Eppendorf tube and incubated at 37° C. shaking at 600 rpm in an Eppendorf Thermomixer for 2 hours. 6. To create intact collagen IV coated slides, […] of diluted collagen IV solution was dropped onto the dried polylysine spot on the slide. 7. To create MMP2 predigested collagen IV coated slides, […] predigested collagen IV was dropped onto the dried polylysine spot on the glass slide. 8. The slides with collagen IV were dried uncovered overnight before testing. 9. Next day, […] of T-peptide-FITC (0.1 mg/ml) was added to the MMP2 predigested collagen spot, […] of T-peptide-FITC (0.1 mg/ml) was added to the intact collagen slide, and […] Control peptide-FITC (0.1mg/ml) was added to the MMP2 predigested collagen slide and the slides were incubated in a covered humidified box with wet paper towels at room temperature for 60 minutes. 10. For the ‘blocked epitope’ slide, […] of unlabelled T-peptide-LPETG (0.1 mg/ml) was added to the MMP2 predigested collagen slide and incubated similarly for 60 minutes. This step binds the epitopes present on the collagen IV and prevents further binding with the FITC labelled T-peptide. Next, […] of T-peptide-FITC (0.1 mg/ml) was added to the same area and incubated for 60 minutes. 11. All the treated slides were examined under fluorescence microscopy (IX81 Olympus microscope)."}, "[3]": {"test_system": "areas of localised fibrosis in the myocardium", "assay": "Ex vivo binding to infarcted mouse myocardium (LAD occlusion)", "details": "ex vivo sections of infarcted mouse hearts 6 weeks after LAD ligation", "description": "To assess whether labelled T-peptide can bind to fibrotic myocardium, a mouse model of myocardial infarction (via left anterior descending coronary artery (LAD) occlusion) was used. This model reflects a very defined area of fibrosis in the infarct zone.\nMice were anaesthetised, the LAD ligated with a suture, and the thorax closed. After 60 mins the suture was removed. After 6 weeks and the development of fibrosis, parts of the infarcted hearts were sectioned and incubated with the T-peptide-FITC and control (s)-peptide-FITC constructs."}, "[4]": {"test_system": "unstable plaque (right common carotid artery segment 1)", "assay": "In vivo binding to unstable plaque after intravenous administration to tandem stenosis mice", "design": "species or system mouse", "details": "tandem stenosis ApoE-/- mice, bolus plus infusion into jugular vein, tissue taken 30 minutes after administration", "description": "(§5) The T-peptide-FITC (Alexa 488) and its control scrambled peptide Con-peptide-FITC were commercially synthesized (GL Biochem. Shanghai China) using solid phase peptide synthesis, as described elsewhere herein. The concentration of the synthesized peptides were all at 1 mg/ml,\n(§6) Each mouse with an average weight of 25 g, would receive […] of T-peptide-FITC or […] of Con-peptide-FITC diluted 1:2 to give concentration of 0.5 mg/ml, which works out to be […] body weight, […] of the diluted peptide will be given as a bolus into the left external jugular vein and the remaining […] by infusion at a rate of […] using an infusion pump connected to a plastic catheter inserted into the left external jugular vein. The method of bolus dose followed by infusion is to optimize the blood level and duration of the circulating peptide to enhance plaque entry and vascular tissue retention of the peptide, since the small molecular weight of the peptide is at risk of rapid clearance through the kidneys. […]\n(§7) The frozen section slides were thawed for 30 minutes at room temperature before examination under the fluorescence microscope (IX81 Olympus microscope) in the FITC 488 nm channel."}, "intact collagen IV": {"test_system": "intact collagen IV", "assay": "In vitro binding to undigested collagen IV coated glass slides", "design": "species or system human", "details": "0.1 mg/ml, 60 minutes, room temperature", "description": "as §4\nBinding to MMP2 digested collagen IV Collagen IV was applied to glass slides coated with polylysine. 1. Polylysine (MW of 30,000-70,000) at 0.1 mg/ml in 0.15 M borate buffer (pH 8.3) was prepared and filtered with […] pore size membrane syringe filter (Millex® Syringe Filter, Millipore). 2. Collagen IV (collagen type IV from human fibroblast culture, Sigma. Aldrich) was diluted to 1:10 with Hank's Balanced Salt Solution (HBSS) to 0.04 mg/ml. 3. For MMP2 digestion, Active recombinant human MMP2 enzyme (expressed in CHO cells) was purchased from Calbiochem. MMP2 stock solution was diluted with PBS to create 0.01 μg/μl MMP2 concentration according to manufacturer's recommendations. 4. For T-peptide-HTC testing using added MMP2, 20 μl of polylysine was spotted on several glass slides and left overnight at room temperature to dry. This forms a coating base for collagen to adhere to subsequently. 5. […] All the treated slides were examined under fluorescence microscopy (IX81 Olympus microscope)."}, "[5]": {"test_system": "stable plaque (aortic arch segment 5)", "assay": "In vivo binding to stable aortic arch plaque after intravenous administration to tandem stenosis mice", "design": "species or system mouse", "details": "tandem stenosis ApoE-/- mice, bolus plus infusion into jugular vein, tissue taken 30 minutes after administration", "description": "as §5, §6, §7"}, "[6]": {"test_system": "stable aortic arch plaques", "assay": "Ex vivo binding to frozen sections of stable aortic arch plaques", "design": "species or system mouse", "details": "0.1 mg/ml conjugate, 60 minutes, FITC channel fluorescence microscopy", "description": "as §1, §2, §3"}},
  "note": "The star is where a group is joined. FITC = O=C1OC2(c3ccc(O)cc3Oc3cc(O)ccc32)c2ccc(NC(=S)*)cc21",
  "data": [
    {"substance": "H-GLGYGWSGK(FITC)-OH (SMILES CC(C)C[C@H](NC(=O)CN)C(=O)NCC(=O)N[C@@H](Cc1ccc(O)cc1)C(=O)NCC(=O)N[C@@H](Cc1c[nH]c2ccccc12)C(=O)N[C@@H](CO)C(=O)NCC(=O)N[C@@H](CCCCNC(=S)Nc1ccc2c(c1)C(=O)OC21c2ccc(O)cc2Oc2cc(O)ccc21)C(=O)O) [control peptide-FITC conjugate, reference compound]", "values": [
      {"measurement": "binding to unstable plaque (fluorescent signal)", "setting": "[1]", "result": "no significant binding"},
      {"measurement": "FITC signal on MMP2-predigested collagen IV coated glass slide", "setting": "[2]", "result": "no FITC signal"},
      {"measurement": "binding to fibrotic myocardium", "setting": "[3]", "result": "no evidence of binding"},
      {"measurement": "binding to the unstable plaque following intravenous administration", "setting": "[4]", "result": "no evidence of binding"}
    ]},
    {"substance": "H-TLTYTWSGK(FITC)-OH (SMILES CC(C)C[C@H](NC(=O)[C@@H](N)[C@@H](C)O)C(=O)N[C@H](C(=O)N[C@@H](Cc1ccc(O)cc1)C(=O)N[C@H](C(=O)N[C@@H](Cc1c[nH]c2ccccc12)C(=O)N[C@@H](CO)C(=O)NCC(=O)N[C@@H](CCCCNC(=S)Nc1ccc2c(c1)C(=O)OC21c2ccc(O)cc2Oc2cc(O)ccc21)C(=O)O)[C@@H](C)O)[C@@H](C)O) [T-peptide-FITC conjugate]", "values": [
      {"measurement": "binding to unstable plaque (fluorescent signal)", "setting": "[1]", "result": "strong fluorescent signal within the lumen"},
      {"measurement": "FITC signal on undigested collagen IV coated glass slide", "setting": "intact collagen IV", "result": "no FITC signal"},
      {"measurement": "binding to the stable aortic arch plaque after intravenous administration", "setting": "[5]", "result": "no binding"},
      {"measurement": "binding to stable plaque (fluorescent signal)", "setting": "[6]", "result": "no fluorescent signal within the vascular lumen"},
      {"measurement": "FITC signal on MMP2-predigested collagen IV coated glass slide", "setting": "[2]", "result": "strong FITC signal"},
      {"measurement": "FITC signal on MMP2-predigested collagen IV slide preincubated with unlabelled T-peptide", "setting": "[2]; blocked epitope slide: unlabelled T-peptide-LPETG 0.1 mg/ml 60 minutes, then T-peptide-FITC 0.1 mg/ml 60 minutes", "result": "no significant FITC signal"},
      {"measurement": "binding to fibrotic myocardium", "setting": "[3]", "result": "binds specifically to areas of localised fibrosis in the myocardium"},
      {"measurement": "binding to the unstable plaque following intravenous administration", "setting": "[4]", "result": "strong binding"}
    ]}
  ]
}
